Laboratory results as given in patent US11266614B2, “Oral formulations of belinostat” (ONXEO, priority 2017, dated 2022).

Key:
[1] = cited from earlier work
[2] = vorinostat: phase I trial; cited from earlier work
[3] = above pH 8.5; cited from earlier work
[4] = Amorphous or crystalline state by powder X-ray diffraction (XRPD); format: physicochemical; conditions: for XRPD 1 week 40/75 open: 1 week 40° C. 75% RH open; for XRPD initial: freshly prepared
Protocol: Amorphous or crystalline state of freshly prepared spray dried dispersions described in Example 2 was assessed by Powder X-ray diffraction (XRPD). The same analysis was repeated after 1 week storage at 40° C. and 75% relative humidity in open conditions. XRPD patterns were obtained with Rigaku MiniFlex 600 X-Ray diffractometer operating with a copper anode ([…]; Kα2=1.54439 Å), generator set at 45 kV and 15 mA, in 2-theta range 3-40° 2θ, scanned at a rate of 2.5° 2θ per minute in continuous scanning mode, and using a D/teX Ultra high speed detector.

[5] = Non-sink in vitro dissolution, micro-centrifuge method; format: physicochemical; conditions: PBS pH 6.5 with 0.5 wt % SIF; for Dissolution C90 min / Dissolution C20 h: 37° C., theoretical maximum 1000 μg/mL; for Dissolution C90 min: 90 min; for Dissolution C20 h: 1200 min
Protocol: Dissolution of spray dried materials of belinostat has been tested in vitro, in non-sink conditions, in order to evaluate the ability of formulations to achieve supersaturation and sustainability of supersaturation relative to crystalline drug.
Dissolution was assessed using micro-centrifuge method (Curatolo et al. Pharm Res 2009:26(6):1419-1431). Micro-centrifuge dissolution method consisted of introducing a 1.8 mg equivalent belinostat as ASD into an empty micro-centrifuge tube and add 1.8 mL total volume dissolution media (PBS pH 6.5 with 0.5 wt % Simulated Intestinal Fluid) to achieve a theoretical maximum belinostat concentration in solution of 1000 μg/mL. For some formulations (marked with* in Table 2), ASDs were first exposed in pH 2.0 gastric media at 2000 μg/mL for 30 min before to be transferred to the PBS pH 6.5 with 0.5 wt % Simulated Intestinal Fluid at a final theoretical maximum belinostat concentration in solution of 1000 μg/mL. Tubes were placed at 37° C. Aliquot (50 μL) were taken from supernatant after centrifugation 15 800 g for 1 min at each time point (5, 10, 20, 45, 90 and 1200 minutes). Between each time point, solids in the centrifuge tube were resuspended by mixing the sample continuously on the vortex mixer for 30 s and the tube was placed back at 37° C. Aliquot samples were diluted using acetonitrile and drug concentration was determined by HPLC.

[6] = Chemical stability: impurities by HPLC, initial and after 1 week 40° C./75% RH; format: physicochemical
Protocol: After a secondary drying overnight at 40° C. 15% RH in a convection tray dryer, the different ASD were characterized for physical stability (XRPD, Tg versus Relative humidity), chemical stability (impurity by HPLC after 1 week 40° C./75% RH) and in vitro dissolution.
Purity of each batch of ASD was tested by HPLC analysis on sample just after preparation and after one week storage in accelerated stability conditions: 40° C./75% RH open or closed. In closed conditions, ASDs were placed in closed bottles (heat induction seal) containing 1 g SORB-IT desiccant canister.
HPLC-analysis was performed using an Agilent 1100 or 1200 system with binary or quaternary pump, a diode array detector, a refrigerated autosampler, and column oven. Data analysis was performed using Empower 3 software. The column used was Zorbax Bonus RP 4.6×150 mm (3.5 μm). Acetonitrile/20 mM Potassium phosphate buffer pH 3.0 was used as mobile phase with a gradient concentration at a flow rate of 1.0 mL/min; UV detection was used at a wavelength of 220 nm.

[7] = Glass transition temperature (Tg) by modulated DSC; format: physicochemical
Protocol: To also evaluate the physical stability of prepared ASDs, glass transition temperature (Tg) was determined at two relative humidity (RH) conditions (<5% and 75% RH) by modulated differential scanning calorimetry (m-DSC).
DSC curves were recorded using a TA Instruments Q2000 differential scanning calorimeter. Samples were heated under nitrogen flow from 0 to 200° C. at 2.5° C.±1.5° C./min in non-hermetically sealed pan for <5% RH analysis or from 0 to 130° C. at 2.5° C.±1.5° C./80 sec in hermetically sealed pan for 75% RH analysis.

[8] = cited from earlier work; remark: listed apart in the source
[9] = 1 week 40° C./75% RH closed, desiccant

O=C(CCCCCCC(=O)Nc1ccccc1)NO [Vorinostat]
permeability (in words) [1]: moderate permeability | absolute oral bioavailability [2]: 43%

O=C(/C=C/c1cccc(S(=O)(=O)Nc2ccccc2)c1)NO [belinostat, (2E)-N-hydroxy-3-[3-(phenylsulfamoyl)phenyl]prop-2-enamide]
chemical stability in liquid solution [3]: poor chemical stability

O=C(/C=C/c1cccc(S(=O)(=O)Nc2ccccc2)c1)NO [Formulation 1]
XRPD 1 week 40/75 open [4]: Crystalline | XRPD initial [4]: Crystalline | Dissolution C90 min [5]: 270 µg/mL | Dissolution C20 h [5]: 310 µg/mL | Bel Acid, Initial ([6]; just after preparation): Bel Acid <0.05 area % | Total imp, Initial ([6]; just after preparation): Total imp <0.05 area %

O=C(/C=C/c1cccc(S(=O)(=O)Nc2ccccc2)c1)NO [Formulation 2]
XRPD 1 week 40/75 open [4]: Crystalline | XRPD initial [4]: Partially crystalline | physical state upon storage (in words) ([4]; upon storage): undergoes recrystallization upon storage | Observation during dissolution [5]: Recrystallization | Dissolution C90 min [5]: 363 µg/mL | Dissolution C20 h [5]: 387 µg/mL | Bel Acid, 1 week 40/75 closed [6, 9]: Bel Acid 0.10 area % | Bel Dimer, 1 week 40/75 closed [6, 9]: Bel Dimer 1.34 area % | Total imp, 1 week 40/75 closed [6, 9]: Total imp 1.49 area % | Bel Acid, 1 week 40/75 open ([6]; 1 week 40° C./75% RH open): Bel Acid 0.10 area % | Bel Dimer, 1 week 40/75 open ([6]; 1 week 40° C./75% RH open): Bel Dimer 0.25 area % | Observation on storage 1 week 40/75 open ([6]; 1 week 40° C./75% RH open): Recrystallization | Total imp, 1 week 40/75 open ([6]; 1 week 40° C./75% RH open): Total imp 0.42 area % | Bel Acid, Initial ([6]; just after preparation): Bel Acid 0.05 area % | Bel Dimer, Initial ([6]; just after preparation): Bel Dimer 0.48 area % | Total imp, Initial ([6]; just after preparation): Total imp 0.59 area % | Tg <5% RH ([7]; <5% RH, m-DSC): 53 °C | glass transition temperature (Tg) ([7]; amorphous belinostat without polymer): about 53 °C

CC(O)C(=O)O.Cc1[nH]c2ccccc2c1CCNCc1ccc(/C=C/C(=O)NO)cc1 [panobinostat lactate]
aqueous solubility, maximum ([8]; pH 2 or 3): ~5000 µg/mL | aqueous solubility at neutral pH ([8]; pH 6.8): 0.3 mg/mL | aqueous solubility ([8]; pH 7.6): 70 µg/mL | solubility in water (in words) ([8]; water): slightly soluble in water | permeability (in words) [1]: highly permeable | absolute oral bioavailability [2]: approximately 21%
